PubChem BioAssay AID2060333 (Molecular Pharmacology Branch, DTP, NCI, 2025)
“And” between values parts separate entries of the source, which are not always exact repeats. Equal entries are not always repeated.

Tested on: 845751-090-R-J2-PDC tumor spheroid viability
Assay: Anticancer human tumor 845751-090-R-J2-PDC patient-derived head and neck squamous carcinoma cell line growth inhibition [IpAb]
Details: spheroids with HUVEC and MSC; for viability, T/C: stronger effect = lower value
Source text: Combinatorial screen of targeted agents with ipatasertib and abemaciclib in multi-cell type tumor spheroids
A high-throughput screen of multi-cell type tumor spheroids was designed to identify active combinations of targeted small molecules and ipatasertib or abemaciclib. Complex spheroids include a stromal component modeled by human endothelial cells (HUVEC) and fibroblasts modeled by human mesenchymal stem cells (MSCs). The concentration ranges selected for each drug and investigational agent were based upon clinically achievable concentrations if the clinical Cmax of the agent was known.
Compounds. The drugs and investigational agents: ipatasertib (NSC767898), abemaciclib(NSC768073), selumetinib (NSC741078), trametinib (758246), adavosertib (NSC754352), everolimus (NSC733504), sapanisertib (NSC764658), vemurafenib (NSC761431), venetoclax (NSC766270), copanlisib (NSC809693), apelisib (NSC765974), palbociblib (NSC758247), vemurafenib (NSC761431), dabrafenib (NSC764134), ravoxertinib (NSC781343), BMS-387032 (NSC767048), sotorasib (NSC818433), talazoparib (NSC767125) and afursertib (NSC778305), were obtained from the National Cancer Institute (NCI) Developmental Therapeutics Program Chemical Repository. The FDA-approved anticancer drug set is available from the NCI Developmental Therapeutics Program. […] The stock solutions were prepared in dimethyl sulfoxide (DMSO, Sigma-Aldrich, St. Louis, MO, cat. D2650) at 800-fold the tested concentration and stored at -70 degrees C prior to their use. All drugs and investigational agents were tested over a range starting from a high concentration at or near the clinical Cmax and decreasing in half-log increments. If the clinical Cmax for an agent had not been determined, the highest concentration tested was 10 microM.
NCI60 Cell Culture. NCI60 cell lines were obtained from the NCI Developmental Therapeutics Program Tumor Repository. For each lot of cells, the Repository performed Applied Biosystems AmpFLSTR Identifiler testing with PCR amplification to confirm consistency with the published Identifier STR profile for each cell line. Cells were kept in continuous culture for no more than 20 passages. The optimal seeding densities for each of the cell lines at each time point assessed were determined prior to performing the concentration response studies. Briefly, the NCI60 human tumor lines were grown as monolayers in RPMI 1640 medium supplemented with 10% FBS and 2 mmol/L L-glutamine.
An additional 9 lines were from the NCI60 cell line panel including MDA-MB-231 breast carcinoma, MDA-MB-468 breast carcinoma, MCF7 breast carcinoma, Hs578T breast carcinoma, MALME-3M melanoma, SK-MEL-2 melanoma, SK-OV-3 ovarian carcinoma, DU-145 prostate carcinoma, PC-3 prostate carcinoma, all cell lines along with major genetic alterations are listed on Table 2. Pooled donor human umbilical vein endothelial cells (HUVEC, Lonza, cat. CC-2519) and human mesenchymal stem cells (hMSC, Lonza, cat. PT-2501) were purchased from Lonza (Walkersville, MD).
PDMR cell lines were grown in complete medium (DC medium): Dulbecco's modified Eagle's medium (DMEM)/F12 supplemented with 5% fetal bovine serum (FBS), 2 mM L-glutamine, 100 U/mL penicillin and 100 µg/ml streptomycin, 0.4 µg/ml hydrocortisone, 10 ng/ml epidermal growth factor (EGF) recombinant human protein, 24 µg/mL adenine, and 0.1 mg/mL primocin. During culture from frozen stock vials, PDMR cells were cultured in the same medium containing 10 µM Y-27632 (see Table 3). The PDCs were cultured in complete DMEM/F12 media without 10 microM Y-27632 dihydrochloride for at least two passages prior to the screen. The pooled donor HUVEC and hMSC were cultured in endothelial cell growth medium 2 (PromoCell, Heidelberg, Germany, cat. C-22011) and mesenchymal stem cell growth medium 2 (PromoCell, cat. C-28009), respectively. For all experiments, HUVEC and hMSC were used at passages </=5.
[…]
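Also: spheroids exposed to compounds for 7 days before readout.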
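For viability, T/C in this document: CTG3D luminescence normalised so that 100% = DMSO vehicle control.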

Structure (SMILES) | viability, T/C (compound 0.0316 µM) | viability, T/C (compound 0.1 µM) | viability, T/C (compound 0.316 µM) | viability, T/C (compound 1 µM) | viability, T/C (compound 3.16 µM) | viability, T/C (compound 10 µM) | IC50 (curve of compound) | other results
C=CC(=O)N1CCN(c2nc(=O)n(-c3c(C)ccnc3C(C)C)c3nc(-c4c(O)cccc4F)c(F)cc23)C(C)C1 (stereo not given) | 84.1% and 78.2% | 88.8% and 74.3% | 98.2% and 105% | 95.9% and 88.2% | 82.6% and 77.3% | 30.3% and 68.4% | 6490 nM and > 10000 nM | –
C=CCn1c(=O)c2cnc(Nc3ccc(N4CCN(C)CC4)cc3)nc2n1-c1cccc(C(C)(C)O)n1 | 98.5% and 92.5% | 75.5% and 64.4% | 70.1% and 55.9% | 68.8% and 58.6% | 68.3% and 69.5% | 49.5% and 53.6% | > 10000 nM | –
CC(=O)c1c(C)c2cnc(Nc3ccc(N4CCNCC4)cn3)nc2n(C2CCCC2)c1=O | – | – | – | – | – | – | > 300 nM | viability, T/C (compound 0.000949 µM): 86.5% and 84.4%; viability, T/C (compound 0.003 µM): 81.2% and 104%; viability, T/C (compound 0.00949 µM): 109% and 90.3%; viability, T/C (compound 0.03 µM): 133% and 91.8%; viability, T/C (compound 0.0949 µM): 112% and 101%; viability, T/C (compound 0.3 µM): 165% and 106%
CC(C)(C)c1cnc(CSc2cnc(NC(=O)C3CCNCC3)s2)o1 | – | – | – | – | – | – | 95.6 nM and 145 nM | viability, T/C (compound 0.00949 µM): 133% and 138%; viability, T/C (compound 0.03 µM): 147% and 141%; viability, T/C (compound 0.0949 µM): 50.3% and 77.6%; viability, T/C (compound 0.3 µM): 1.67% and 2.96%; viability, T/C (compound 0.949 µM): 1.36% and 1.78%; viability, T/C (compound 3 µM): 0.89% and 2.1%
CC(C)NCC(C(=O)N1CCN(c2ncnc3c2C(C)CC3O)CC1)c1ccc(Cl)cc1 (stereo not given) | – | – | – | 30.2% [middle of 13 runs] | 23.3% [middle of 13 runs] | 14.6% [middle of 13 runs] | – | –
CC(C)n1nc(-c2ccc3oc(N)nc3c2)c2c(N)ncnc21 | 49.8% and 32.9% | 26% and 20.3% | – | – | – | – | 16.2 nM and 7.32 nM | viability, T/C (compound 0.000316 µM): 108% and 77.2%; viability, T/C (compound 0.001 µM): 81.4% and 72.8%; viability, T/C (compound 0.00316 µM): 58.9% and 50.4%; viability, T/C (compound 0.01 µM): 57.2% and 53.4%
CC1(C)CCC(CN2CCN(c3ccc(C(=O)NS(=O)(=O)c4ccc(NCC5CCOCC5)c([N+](=O)[O-])c4)c(Oc4cnc5[nH]ccc5c4)c3)CC2)=C(c2ccc(Cl)cc2)C1 | 124% and 120% | 111% and 103% | 145% and 85.5% | 198% and 117% | 221% and 138% | 37.6% and 25.7% | 8900 nM and 7240 nM | –
CCCS(=O)(=O)Nc1ccc(F)c(C(=O)c2c[nH]c3ncc(-c4ccc(Cl)cc4)cc23)c1F | 134% and 78.5% | 120% and 76.5% | 111% and 63% | 84.5% and 45.3% | 46.7% and 33.6% | 50.4% and 29.4% | 5550 nM and 737 nM | –
CCN1CCN(Cc2ccc(Nc3ncc(F)c(-c4cc(F)c5nc(C)n(C(C)C)c5c4)n3)nc2)CC1 | – | – | – | – | – | – | – | IC50 (compound alone, run of 05/18/2021): > 1000 nM
COc1c(OCCCN2CCOCC2)ccc2c3n(c(=NC(=O)c4cnc(N)nc4)nc12)CCN3 | 36.9% and 35.4% | 19.8% and 22.2% | 13.8% and 16.1% | 4.09% and 9.06% | – | – | 17.6 nM and 16.1 nM | viability, T/C (compound 0.00316 µM): 85.1% and 76.3%; viability, T/C (compound 0.01 µM): 62.6% and 60.3%
Cc1nc(NC(=O)N2CCCC2C(N)=O)sc1-c1ccnc(C(C)(C)C(F)(F)F)c1 (stereo not given) | 79.1% and 55.6% | 54.8% and 65.7% | 36.8% and 46.5% | 25.4% and 25% | 17.9% and 18.6% | 10.7% and 14.8% | 138 nM and 262 nM | –
Cn1cnc2c(F)c(Nc3ccc(Br)cc3Cl)c(C(=O)NOCCO)cc21 | – | – | – | – | – | – | > 3000 nM | viability, T/C (compound 0.00949 µM): 107% and 165%; viability, T/C (compound 0.03 µM): 94.5% and 174%; viability, T/C (compound 0.0949 µM): 75% and 136%; viability, T/C (compound 0.3 µM): 82.8% and 125%; viability, T/C (compound 0.949 µM): 80.4% and 122%; viability, T/C (compound 3 µM): 65.8% and 67.1%
Cn1ncc(Cl)c1-c1cc(C(=O)NC(CN)Cc2cccc(F)c2)sc1Cl (stereo not given) | 105% and 86.6% | 76.1% and 51.8% | 52.6% and 32.5% | 38.7% and 29.1% | 16% and 10.7% | 1.14% and 1.09% | 466 nM and 139 nM | –
Cn1nccc1Nc1nccc(-c2ccn(C(CO)c3ccc(Cl)c(F)c3)c(=O)c2)n1 (stereo not given) | 128% and 195% | 141% and 196% | 155% and 220% | 168% and 256% | 149% and 198% | 85.6% and 134% | > 10000 nM | –
Cn1ncnc1[C@H]1c2n[nH]c(=O)c3cc(F)cc(c23)N[C@@H]1c1ccc(F)cc1 | 100% and 106% | 96.4% and 111% | – | – | – | – | > 100 nM | viability, T/C (compound 0.000316 µM): 81.7% and 97.4%; viability, T/C (compound 0.001 µM): 80% and 90.8%; viability, T/C (compound 0.00316 µM): 137% and 113%; viability, T/C (compound 0.01 µM): 105% and 91.3%
